{"source": "patent US11597703B2", "about": "“Caspase inhibitors and methods of use thereof” (Histogen Inc., priority 2019, dated 2023)", "key": {"Caspase 6": {"target": "T1, Caspase 6 (Homo sapiens, UniProt P55212)", "T1 construct": "purchased Enzo Biosciences", "T1 sequence (P55212 24-179 limits assumed)": "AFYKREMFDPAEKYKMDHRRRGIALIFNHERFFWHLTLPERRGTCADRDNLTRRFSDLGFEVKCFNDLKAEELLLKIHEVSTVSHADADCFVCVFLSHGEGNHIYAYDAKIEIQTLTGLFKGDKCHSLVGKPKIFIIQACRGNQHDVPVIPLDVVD", "T1 sequence (P55212 194-293 limits assumed)": "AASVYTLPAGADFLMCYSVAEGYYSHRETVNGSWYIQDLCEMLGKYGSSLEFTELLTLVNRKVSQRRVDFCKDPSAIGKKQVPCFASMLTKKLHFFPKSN", "assay": "Caspase 6 enzymatic inhibition assay, IC50", "type": "biochemical", "conditions": "read-out: Caspase 6 enzyme inhibition IC50", "outline": "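Following manufacturer-specified conditions, enzymatic activity of purchased human caspase-3, -6 and -7 was measured with compound present to obtain IC50s.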"}, "Jurkat cells": {"test_system": "Jurkat cells", "assay": "Prevention of Fas-induced apoptosis in Jurkat cells (WST-8)", "type": "cell-based", "conditions": "Homo sapiens, 10 micromolar, read-out: % Prevention of Fas - induced Jurkat cell apoptosis at 10 micromolar", "procedure": "Compounds of the present invention were evaluated in Jurkat cells, a human T-lymphocyte cell line, to evaluate compounds ability to inhibit apoptotic cell death. Jurkat cells, Clone E6-1 (ATCC TIB-152) were grown in culture maintain a cell density between 0.5-2 million cells/mL. Cells were tested for viability and countion with typan blue stain before use. Test compounds were addedd to 96 well plates and Jurkat cells were added at a concentration of approximately 100,000 cells per well and mixed thoroughly by action of pipetting. Plated cells were incubated for 1 hour at 37 degrees C. under an atmosphere of 5% CO2. Anti-Fas antibody was added and mixed by pipet action. Plates were incubated for 20 hours at 37 degrees C. under an atmosphere of 5% CO2. 10 microliters of thawed WST-8 solution was added to each well and incubated for 4 hours. Absorbance was measured at 450 nm and control reading at […] using a SpectraMax ID5 plate reader. Apoptotic cell death is executed by caspases 3, 7 and 6. Compounds that lack activity against these caspases will not prevent the death of Jurkat cells and is a functional test of selectivity for inflammatory over apoptotic caspases.\nIC50 values to protect against Fas induced apoptosis and improve survival of Jurkat cells were determined from dose response studies."}, "IL-1β": {"test_system": "IL-1β", "assay": "Mouse in vivo model of peritoneal inflammation (LPS/ATP), IL-1β in peritoneal lavage fluid", "parameters": "species or system Mice", "conditions": "mouse peritonitis, IP injection", "procedure": "Compounds of the present invention were tested in a mouse in vivo model of peritoneal inflammation (peritonitis). Mice were treated with intraperotonial injection of bacterial endotoxin, (LPS). After 1 hour, test compounds were administered by IP injection. After an additional hour, adenosine triphosphate (ATP) was administered by IP injection to further induce the production of the inflammatory cytokines, IL-1β and IL 18. After 0.5 hours, peritoneal lavage fluid was collected and analyzed for IL-1β and IL 18. An inhibitor of the NLRP 3 inflammasome, MCC950, was administered by IP injection and included as a reference test compound. […] IL18 levels were determined by a commercially available ELISA kit following the manufacture's instructions FIG. 3."}, "[1]": {"assay": "Rodent model of ulcerative colitis induced by TNBS", "type": "in vivo, Sprague-Dawley rats", "conditions": "for colon histology: Edema, Submucosal, Mean / colon histology: Erosion/ Ulceration, Mean / colon histology: Hyperplasia, Epithelial, Mean / colon histology: Necrosis, Mucosal/ Gland Loss, Mean / colon histology: SUM Score, Mean / colon histology: Subacute Inflammation, Mucosal/ Submucosal, Mean / colon histology: Subacute Inflammation, Transmural/ Serosal, Mean: DAY 7", "procedure": "Compounds of the present invention were tested by oral administration in a rodent model of ulcerative colitis (UC). Ulcerative colitis was induced in Sprague-Dawley rats by instillation of 48 mg/kg […], (TNBS), through the rectum. Testing included 4 active treatment groups and one vehicle control group.\nEffect of TNBS-Induced UC in Vehicle Treated Control Group, (Group 1):\nRats were administered of 0.5% vehicle carboxy methylcellulose, (CMC), twice daily starting 24 hours after the instillation of TNBS.\nAt the termination of the study on DAY 7, the average colon weight in the diseased rats was 5.904±2.208 g, the average colon length was 11.0±1.4 cm and the average distal colon width was 3.1±1.0 cm. Severe adhesions involving multiple intestinal loops, severe stricture resulting in proximal colon distension, ulcers of 6.4±0.4 cm in length, and colonic wall thickness of 3.5±0.8 mm combined to yield an overall colonic score of 11.5±0.8 in the diseased rats. […] Subacute inflammation (sub/mucosal and transmural/serosal were graded separately) was characterized by infiltration and aggregation of neutrophils, eosinophils, lymphocytes, plasma cells, and macrophages. Mucosal necrosis was characterized by damage to, necrosis of, or complete loss of colonic glands. Erosions were characterized by coagulative necrosis or loss of surface epithelium superficial to the muscularis mucosae. Submucosal edema was characterized by expansion of the submucosa by clear space or pale eosinophilic fluid, variably accompanied by dilation of lymphatic vessels and similar edematous expansion of the lamina propria. Epithelial hyperplasia was characterized by elongation of colonic glands and increased numbers of epithelial mitotic figures."}, "[2]": {"conditions": "Group 3, 10 mg/kg/dose twice daily oral"}, "[3]": {"conditions": "Group 4, 30 mg/kg/dose twice daily oral"}, "[4]": {"conditions": "Group 5, 100 mg/kg/dose twice daily oral"}, "[5]": {"conditions": "all dose groups (10, 30, 100 mg/kg/dose twice daily oral)"}}}
{"smiles": "C[C@H](NC(=O)C(=O)Nc1c(F)cccc1F)C(=O)N[C@@H](CCC(=O)O)C(=O)COc1c(F)c(F)cc(F)c1F", "note": "[Example 6, (S)-4-((S)-2-(2-((2,6-Difluorophenyl)amino)-2-oxoacetamido)propanamido)-5-oxo-6-(2,3,5,6-tetrafluorophenoxy)hexanoic acid]", "values": [{"measurement": "IC50", "setting": "Caspase 6", "result": "≥ 1", "unit": "µM"}, {"measurement": "inhibition at 10 µM", "setting": "Jurkat cells", "result": "≤ 10", "unit": "%"}, {"measurement": "inhibition of the in vivo production of IL-1β", "setting": "IL-1β", "result": "statistically significant inhibition"}, {"measurement": "body weights, onset of significant improvement", "setting": "[1]; [2]", "result": "significantly improved beginning on DAY 4"}, {"measurement": "colon histology: Edema, Submucosal, Mean", "setting": "[1]; [2]", "result": 3.2}, {"measurement": "colon histology: Erosion/ Ulceration, Mean", "setting": "[1]; [2]", "result": 4.0}, {"measurement": "colon histology: Hyperplasia, Epithelial, Mean", "setting": "[1]; [2]", "result": 3.4}, {"measurement": "colon histology: Necrosis, Mucosal/ Gland Loss, Mean", "setting": "[1]; [2]", "result": 4.0}, {"measurement": "colon histology: SUM Score, Mean", "setting": "[1]; [2]", "result": 19.3}, {"measurement": "colon histology: Subacute Inflammation, Mucosal/ Submucosal, Mean", "setting": "[1]; [2]", "result": 4.3}, {"measurement": "colon histology: Subacute Inflammation, Transmural/ Serosal, Mean", "setting": "[1]; [2]", "result": 3.9}, {"measurement": "average animal weight, Mean", "setting": "[1]; Group 3, 10 mpk twice daily oral, study day 0", "result": 241, "unit": "g"}, {"measurement": "average animal weight, Mean", "setting": "[1]; Group 3, 10 mpk twice daily oral, study day 1", "result": 236, "unit": "g"}, {"measurement": "average animal weight, Mean", "setting": "[1]; Group 3, 10 mpk twice daily oral, study day 2", "result": 223, "unit": "g"}, {"measurement": "average animal weight, Mean", "setting": "[1]; Group 3, 10 mpk twice daily oral, study day 3", "result": 218, "unit": "g"}, {"measurement": "average animal weight, Mean", "setting": "[1]; Group 3, 10 mpk twice daily oral, study day 4", "result": 218, "unit": "g"}, {"measurement": "average animal weight, Mean", "setting": "[1]; Group 3, 10 mpk twice daily oral, study day 5", "result": 222, "unit": "g"}, {"measurement": "average animal weight, Mean", "setting": "[1]; Group 3, 10 mpk twice daily oral, study day 6", "result": 227, "unit": "g"}, {"measurement": "average animal weight, Mean", "setting": "[1]; Group 3, 10 mpk twice daily oral, study day 7", "result": 228, "unit": "g"}, {"measurement": "average animal weight, Mean", "setting": "[1]; Group 3, 10 mpk twice daily oral, study day −1", "result": 256, "unit": "g"}, {"measurement": "average animal weight, Mean", "setting": "[1]; Group 3, 10 mpk twice daily oral, study day −5", "result": 222, "unit": "g"}, {"measurement": "body weights, onset of significant improvement", "setting": "[1]; [3]", "result": "statistically significantly improved body weights starting on DAY 5"}, {"measurement": "reduction in overall colonic score", "setting": "[1]; [3]", "result": 40, "unit": "%"}, {"measurement": "colon histology: Edema, Submucosal, Mean", "setting": "[1]; [3]", "result": 2.6}, {"measurement": "colon histology: Erosion/ Ulceration, Mean", "setting": "[1]; [3]", "result": 3.4}, {"measurement": "colon histology: Hyperplasia, Epithelial, Mean", "setting": "[1]; [3]", "result": 3.1}, {"measurement": "colon histology: Necrosis, Mucosal/ Gland Loss, Mean", "setting": "[1]; [3]", "result": 3.4}, {"measurement": "colon histology: SUM Score, Mean", "setting": "[1]; [3]", "result": 17.6}, {"measurement": "colon histology: Subacute Inflammation, Mucosal/ Submucosal, Mean", "setting": "[1]; [3]", "result": 3.9}, {"measurement": "colon histology: Subacute Inflammation, Transmural/ Serosal, Mean", "setting": "[1]; [3]", "result": 3.2}, {"measurement": "average animal weight, Mean", "setting": "[1]; Group 4, 30 mpk twice daily oral, study day 0", "result": 234, "unit": "g"}, {"measurement": "average animal weight, Mean", "setting": "[1]; Group 4, 30 mpk twice daily oral, study day 1", "result": 228, "unit": "g"}, {"measurement": "average animal weight, Mean", "setting": "[1]; Group 4, 30 mpk twice daily oral, study day 2", "result": 215, "unit": "g"}, {"measurement": "average animal weight, Mean", "setting": "[1]; Group 4, 30 mpk twice daily oral, study day 3", "result": 214, "unit": "g"}, {"measurement": "average animal weight, Mean", "setting": "[1]; Group 4, 30 mpk twice daily oral, study day 4", "result": 216, "unit": "g"}, {"measurement": "average animal weight, Mean", "setting": "[1]; Group 4, 30 mpk twice daily oral, study day 5", "result": 218, "unit": "g"}, {"measurement": "average animal weight, Mean", "setting": "[1]; Group 4, 30 mpk twice daily oral, study day 6", "result": 220, "unit": "g"}, {"measurement": "average animal weight, Mean", "setting": "[1]; Group 4, 30 mpk twice daily oral, study day 7", "result": 223, "unit": "g"}, {"measurement": "average animal weight, Mean", "setting": "[1]; Group 4, 30 mpk twice daily oral, study day −1", "result": 248, "unit": "g"}, {"measurement": "average animal weight, Mean", "setting": "[1]; Group 4, 30 mpk twice daily oral, study day −5", "result": 222, "unit": "g"}, {"measurement": "body weights, onset of significant improvement", "setting": "[1]; [4]", "result": "statistically significantly improved body weights starting on DAY 5"}, {"measurement": "colon histology: Edema, Submucosal, Mean", "setting": "[1]; [4]", "result": 3.0}, {"measurement": "colon histology: Erosion/ Ulceration, Mean", "setting": "[1]; [4]", "result": 3.6}, {"measurement": "colon histology: Hyperplasia, Epithelial, Mean", "setting": "[1]; [4]", "result": 3.0}, {"measurement": "colon histology: Necrosis, Mucosal/ Gland Loss, Mean", "setting": "[1]; [4]", "result": 3.6}, {"measurement": "colon histology: SUM Score, Mean", "setting": "[1]; [4]", "result": 17.5}, {"measurement": "colon histology: Subacute Inflammation, Mucosal/ Submucosal, Mean", "setting": "[1]; [4]", "result": 3.9}, {"measurement": "colon histology: Subacute Inflammation, Transmural/ Serosal, Mean", "setting": "[1]; [4]", "result": 3.4}, {"measurement": "average animal weight, Mean", "setting": "[1]; Group 5, 100 mpk twice daily oral, study day 0", "result": 232, "unit": "g"}, {"measurement": "average animal weight, Mean", "setting": "[1]; Group 5, 100 mpk twice daily oral, study day 1", "result": 231, "unit": "g"}, {"measurement": "average animal weight, Mean", "setting": "[1]; Group 5, 100 mpk twice daily oral, study day 2", "result": 219, "unit": "g"}, {"measurement": "average animal weight, Mean", "setting": "[1]; Group 5, 100 mpk twice daily oral, study day 3", "result": 213, "unit": "g"}, {"measurement": "average animal weight, Mean", "setting": "[1]; Group 5, 100 mpk twice daily oral, study day 4", "result": 217, "unit": "g"}, {"measurement": "average animal weight, Mean", "setting": "[1]; Group 5, 100 mpk twice daily oral, study day 5", "result": 220, "unit": "g"}, {"measurement": "average animal weight, Mean", "setting": "[1]; Group 5, 100 mpk twice daily oral, study day 6", "result": 222, "unit": "g"}, {"measurement": "average animal weight, Mean", "setting": "[1]; Group 5, 100 mpk twice daily oral, study day 7", "result": 225, "unit": "g"}, {"measurement": "average animal weight, Mean", "setting": "[1]; Group 5, 100 mpk twice daily oral, study day −1", "result": 246, "unit": "g"}, {"measurement": "average animal weight, Mean", "setting": "[1]; Group 5, 100 mpk twice daily oral, study day −5", "result": 222, "unit": "g"}, {"measurement": "SUM scores of colon histological parameters", "setting": "[1]; [5]", "result": "statistically significant improvement"}, {"measurement": "overall colonic score", "setting": "[1]; [5]", "result": "statistically significant improvement"}]}
